# Active and inactive are the calls of the source. No cut-off for these calls is given here.
# What was measured:
# [1] = molecular target: CDK2/Cyclin A2 (Homo sapiens) (UniProt P24941+P20248); assay: Inhibition of CDK2/cyclin A (unknown origin) at 1 uM; format: protein-complex assay
# [2] = molecular target: Glycogen synthase kinase-3 beta (Homo sapiens) (UniProt P49841); assay: Inhibition of GSK3B (unknown origin) at 1 uM
# [3] = molecular target: T1, Receptor-type tyrosine-protein kinase FLT3 (Homo sapiens, UniProt P36888, ITD); assay: Inhibition of FLT3/ITD mutant phosphorylation in human MV4-11 cells after 1 hr by Western blot analysis; format: cell-based
# [4] = molecular target: Receptor-type tyrosine-protein kinase FLT3 (Homo sapiens) (UniProt P36888); assay: Inhibition of FLT3 (unknown origin) at 1 uM
# [5] = tested on: MOLM-13; assay: cells; conditions: Homo sapiens, MOLM-13, 72 h
# [6] = molecular target: Proto-oncogene tyrosine-protein kinase receptor Ret (Homo sapiens) (UniProt P07949); assay: Inhibition of RET (unknown origin) at 1 uM
# [7] = molecular target: Angiopoietin-1 receptor (Homo sapiens) (UniProt Q02763); assay: Inhibition of TEK (unknown origin) at 1 uM
# [8] = molecular target: T2, Receptor-type tyrosine-protein kinase FLT3 (Homo sapiens, UniProt P36888); assay: biochemical; format: cell-based, Sf9
# T2 sequence (P36888 whole entry): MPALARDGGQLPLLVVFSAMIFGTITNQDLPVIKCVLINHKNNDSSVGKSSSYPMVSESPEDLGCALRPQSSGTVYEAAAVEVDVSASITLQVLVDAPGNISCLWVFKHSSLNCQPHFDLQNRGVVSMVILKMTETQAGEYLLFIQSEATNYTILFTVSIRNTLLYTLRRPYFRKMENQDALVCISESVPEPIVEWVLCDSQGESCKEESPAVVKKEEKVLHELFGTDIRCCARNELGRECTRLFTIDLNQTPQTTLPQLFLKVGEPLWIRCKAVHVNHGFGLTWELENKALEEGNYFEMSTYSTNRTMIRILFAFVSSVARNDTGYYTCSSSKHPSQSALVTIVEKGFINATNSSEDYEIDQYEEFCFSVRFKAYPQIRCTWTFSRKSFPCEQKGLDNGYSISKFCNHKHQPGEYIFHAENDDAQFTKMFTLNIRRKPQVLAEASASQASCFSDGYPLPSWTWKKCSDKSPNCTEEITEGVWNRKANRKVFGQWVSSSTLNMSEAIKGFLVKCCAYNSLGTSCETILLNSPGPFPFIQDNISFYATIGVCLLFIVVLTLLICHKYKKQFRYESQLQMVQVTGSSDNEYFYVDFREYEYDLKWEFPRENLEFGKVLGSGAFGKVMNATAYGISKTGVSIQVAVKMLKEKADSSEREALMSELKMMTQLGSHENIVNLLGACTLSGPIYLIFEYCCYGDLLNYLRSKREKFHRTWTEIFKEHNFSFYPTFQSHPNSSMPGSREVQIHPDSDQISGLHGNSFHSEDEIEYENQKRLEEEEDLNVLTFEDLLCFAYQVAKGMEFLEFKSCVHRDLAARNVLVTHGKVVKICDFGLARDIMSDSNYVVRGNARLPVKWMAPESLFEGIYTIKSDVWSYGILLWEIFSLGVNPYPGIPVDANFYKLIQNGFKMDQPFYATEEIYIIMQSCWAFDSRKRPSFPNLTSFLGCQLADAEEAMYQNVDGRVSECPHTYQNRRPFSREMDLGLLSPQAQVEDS
# Description: Inhibition of wild type GST tagged FLT3 kinase (567 to 993) (unknown origin) transfected in insect sf9 cells after 4 hrs by wallac counting analysis
# [9] = molecular target: Serine/threonine-protein kinase MRCK alpha (Homo sapiens) (UniProt Q5VT25); assay: Inhibition of MRCKA (unknown origin) at 1 uM
# [10] = molecular target: Glycogen synthase kinase-3 alpha (Homo sapiens) (UniProt P49840); assay: Inhibition of GSK3A (unknown origin) at 1 uM
# [11] = molecular target: Macrophage-stimulating protein receptor (Homo sapiens) (UniProt Q04912); assay: Inhibition of MST1R (unknown origin) at 1 uM
# [12] = tested on: MOLM-13; assay: Antitumor activity against human MOLM13 cells xenografted in nu/nu mouse at 10 mg/kg, iv qd administered on days 1 to 5 and day 8 to 12 measured after 48 days; format: functional; conditions: read-out: TGI
# [13] = molecular target: Hepatocyte growth factor receptor (Homo sapiens) (UniProt P08581); assay: Inhibition of MET (unknown origin) at 1 uM
# [14] = molecular target: Vascular endothelial growth factor receptor 1 (Homo sapiens) (UniProt P17948); assay: Inhibition of FLT1 (unknown origin) at 1 uM
# [15] = molecular target: Ribosomal protein S6 kinase beta-1 (Homo sapiens) (UniProt P23443); assay: Inhibition of RPS6KB1 (unknown origin) at 1 uM
# [16] = molecular target: Inhibitor of nuclear factor kappa-B kinase subunit beta (Homo sapiens) (UniProt O14920); assay: Inhibition of IKBKB (unknown origin) at 1 uM
# [17] = tested on: MOLM-13; assay: Antitumor activity against human MOLM13 cells xenografted in nu/nu mouse at 1mg/kg, iv qd administered on days 1 to 5 and days 8 to 12 measured for 5 days; format: functional, organism-based
# [18] = Volume of distribution at steady state in Sprague-Dawley rat at 2 mg/kg, iv; format: ADME, organism-based; set-up: dose 2 mg/kg, route intravenous; conditions: in vivo, read-out: Vdss
# [19] = molecular target: Hepatocyte growth factor receptor (Homo sapiens) (UniProt P08581); assay: Inhibition of MET (unknown origin) at 1 uM by kinase Glo assay
# [20] = Plasma clearance in Sprague-Dawley rat at 2 mg/kg, iv; format: ADME, organism-based; set-up: dose 2 mg/kg, route intravenous
# [21] = molecular target: Platelet-derived growth factor receptor beta (Homo sapiens) (UniProt P09619); assay: Inhibition of PDGFRB (unknown origin) at 1 uM by kinase Glo assay
# [22] = molecular target: AMP-activated protein kinase (AMPK) alpha-1/beta-1/gamma-1 (Homo sapiens) (UniProt P54619+Q9Y478+Q13131); assay: Inhibition of AMPK A1/B1/G1 (unknown origin) at 1 uM by kinase Glo assay; format: protein-complex assay
# [23] = tested on: MOLM-13; assay: Antitumor activity against human MOLM13 cells xenografted in nu/nu mouse at 3 mg/kg, iv qd administered on days 1 to 5 and days 8 to 12; format: functional, organism-based; set-up: dose 3 mg/kg
# [24] = molecular target: Tyrosine-protein kinase ABL1 (Homo sapiens) (UniProt P00519); assay: Inhibition of ABL1 (unknown origin) at 1 uM
# [25] = molecular target: Dual specificity mitogen-activated protein kinase kinase 1 (Homo sapiens) (UniProt Q02750); assay: Inhibition of MAP2K1 (unknown origin) at 1 uM
# [26] = molecular target: Vascular endothelial growth factor receptor 2 (Homo sapiens, UniProt P35968); assay: biochemical; format: cell-based, Sf9
# Description: Inhibition of recombinant GST tagged VEGFR2 (789 to 1356) (unknown origin) transfected in insect sf9 cells after 120 mins by wallac counting analysis
# [27] = molecular target: T1, Receptor-type tyrosine-protein kinase FLT3; assay: Inhibition of FLT3/ITD mutant-mediated stat5 phosphorylation in human MV4-11 cells after 1 hr by Western blot analysis; format: cell-based
# [28] = molecular target: Non-receptor tyrosine-protein kinase TYK2 (Homo sapiens) (UniProt P29597); assay: Inhibition of TYK2 (unknown origin) at 1 uM
# [29] = tested on: MOLM-13; assay: Antitumor activity against human MOLM13 cells xenografted in nu/nu mouse at 10 mg/kg, iv qd administered on days 1 to 5 and days 8 to 12 measured on day 16; format: functional; conditions: MOLM-13, 384 h, read-out: TGI
# Hepatocyte growth factor receptor (Homo sapiens), sequence (P08581 whole entry): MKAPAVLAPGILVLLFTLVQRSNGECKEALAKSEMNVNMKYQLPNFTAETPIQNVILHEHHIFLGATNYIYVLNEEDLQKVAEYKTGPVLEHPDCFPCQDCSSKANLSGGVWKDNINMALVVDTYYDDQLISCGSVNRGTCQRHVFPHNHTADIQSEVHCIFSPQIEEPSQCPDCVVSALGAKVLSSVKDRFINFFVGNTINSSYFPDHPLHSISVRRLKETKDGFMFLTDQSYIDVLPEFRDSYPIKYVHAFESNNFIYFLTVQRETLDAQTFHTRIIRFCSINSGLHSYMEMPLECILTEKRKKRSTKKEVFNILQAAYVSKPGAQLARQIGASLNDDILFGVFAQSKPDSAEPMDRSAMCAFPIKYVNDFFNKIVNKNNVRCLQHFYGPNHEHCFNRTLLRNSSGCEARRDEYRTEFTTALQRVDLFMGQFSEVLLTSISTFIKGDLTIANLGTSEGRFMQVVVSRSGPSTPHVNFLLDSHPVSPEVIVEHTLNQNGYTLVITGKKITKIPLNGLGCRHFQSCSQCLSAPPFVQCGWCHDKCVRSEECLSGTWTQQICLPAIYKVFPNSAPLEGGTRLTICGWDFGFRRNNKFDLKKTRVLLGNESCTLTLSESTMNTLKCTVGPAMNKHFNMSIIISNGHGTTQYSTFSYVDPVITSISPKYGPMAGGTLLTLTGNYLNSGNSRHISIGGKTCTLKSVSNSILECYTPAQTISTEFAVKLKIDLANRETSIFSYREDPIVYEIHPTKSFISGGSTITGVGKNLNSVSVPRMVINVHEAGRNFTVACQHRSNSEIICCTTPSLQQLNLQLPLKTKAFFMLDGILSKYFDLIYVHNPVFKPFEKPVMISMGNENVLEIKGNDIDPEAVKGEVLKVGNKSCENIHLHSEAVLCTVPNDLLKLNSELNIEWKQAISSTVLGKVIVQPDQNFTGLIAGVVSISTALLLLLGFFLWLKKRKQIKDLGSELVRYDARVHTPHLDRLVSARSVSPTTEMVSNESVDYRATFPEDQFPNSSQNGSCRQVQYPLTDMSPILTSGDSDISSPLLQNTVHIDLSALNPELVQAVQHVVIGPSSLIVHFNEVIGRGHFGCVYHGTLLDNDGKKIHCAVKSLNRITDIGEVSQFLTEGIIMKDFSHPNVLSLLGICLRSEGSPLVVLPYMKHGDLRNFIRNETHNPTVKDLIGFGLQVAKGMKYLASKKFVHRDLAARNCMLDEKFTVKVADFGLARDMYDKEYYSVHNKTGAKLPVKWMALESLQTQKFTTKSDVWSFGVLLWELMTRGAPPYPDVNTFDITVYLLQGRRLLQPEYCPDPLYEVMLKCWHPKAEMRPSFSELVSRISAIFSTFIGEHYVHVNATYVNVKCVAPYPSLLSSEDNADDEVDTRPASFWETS
# Platelet-derived growth factor receptor beta (Homo sapiens), sequence (P09619 whole entry): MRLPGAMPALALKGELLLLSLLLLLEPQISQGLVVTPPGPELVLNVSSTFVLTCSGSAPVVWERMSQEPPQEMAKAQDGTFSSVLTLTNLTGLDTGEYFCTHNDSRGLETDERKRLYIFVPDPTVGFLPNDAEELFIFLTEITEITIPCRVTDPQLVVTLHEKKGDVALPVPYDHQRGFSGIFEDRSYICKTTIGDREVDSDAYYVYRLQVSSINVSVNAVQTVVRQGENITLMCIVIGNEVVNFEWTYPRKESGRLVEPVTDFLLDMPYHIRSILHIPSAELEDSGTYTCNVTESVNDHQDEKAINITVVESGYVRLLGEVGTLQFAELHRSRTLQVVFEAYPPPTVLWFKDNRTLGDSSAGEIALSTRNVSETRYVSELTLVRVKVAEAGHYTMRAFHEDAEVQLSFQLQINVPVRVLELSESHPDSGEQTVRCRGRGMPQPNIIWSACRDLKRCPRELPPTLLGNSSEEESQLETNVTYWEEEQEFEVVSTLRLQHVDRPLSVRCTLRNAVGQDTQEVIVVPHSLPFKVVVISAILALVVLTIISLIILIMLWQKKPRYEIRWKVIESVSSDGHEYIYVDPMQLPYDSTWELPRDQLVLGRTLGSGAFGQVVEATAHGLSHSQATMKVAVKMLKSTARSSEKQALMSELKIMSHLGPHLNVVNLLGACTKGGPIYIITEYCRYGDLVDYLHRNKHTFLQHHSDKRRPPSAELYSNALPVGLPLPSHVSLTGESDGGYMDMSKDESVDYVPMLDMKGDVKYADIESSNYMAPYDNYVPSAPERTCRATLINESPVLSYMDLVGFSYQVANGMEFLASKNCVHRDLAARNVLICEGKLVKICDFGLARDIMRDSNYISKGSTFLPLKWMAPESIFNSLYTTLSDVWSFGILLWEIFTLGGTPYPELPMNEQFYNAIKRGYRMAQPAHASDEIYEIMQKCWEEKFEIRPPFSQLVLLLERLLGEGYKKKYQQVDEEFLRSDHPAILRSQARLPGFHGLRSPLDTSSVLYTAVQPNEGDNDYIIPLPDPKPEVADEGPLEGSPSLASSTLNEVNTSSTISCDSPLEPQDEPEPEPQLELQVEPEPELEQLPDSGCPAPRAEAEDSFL
# AMP-activated protein kinase (AMPK) alpha-1/beta-1/gamma-1 (Homo sapiens), sequence (P54619 whole entry): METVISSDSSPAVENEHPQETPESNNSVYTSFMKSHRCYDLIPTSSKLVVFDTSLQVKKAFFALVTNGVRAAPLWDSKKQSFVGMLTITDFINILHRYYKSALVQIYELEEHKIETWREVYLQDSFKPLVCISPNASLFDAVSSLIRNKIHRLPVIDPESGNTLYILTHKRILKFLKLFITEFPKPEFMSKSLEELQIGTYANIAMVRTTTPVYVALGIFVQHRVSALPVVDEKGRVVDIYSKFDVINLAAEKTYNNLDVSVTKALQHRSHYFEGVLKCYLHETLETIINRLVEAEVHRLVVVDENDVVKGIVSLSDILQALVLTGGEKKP
# AMP-activated protein kinase (AMPK) alpha-1/beta-1/gamma-1 (Homo sapiens), sequence (Q13131 whole entry partner): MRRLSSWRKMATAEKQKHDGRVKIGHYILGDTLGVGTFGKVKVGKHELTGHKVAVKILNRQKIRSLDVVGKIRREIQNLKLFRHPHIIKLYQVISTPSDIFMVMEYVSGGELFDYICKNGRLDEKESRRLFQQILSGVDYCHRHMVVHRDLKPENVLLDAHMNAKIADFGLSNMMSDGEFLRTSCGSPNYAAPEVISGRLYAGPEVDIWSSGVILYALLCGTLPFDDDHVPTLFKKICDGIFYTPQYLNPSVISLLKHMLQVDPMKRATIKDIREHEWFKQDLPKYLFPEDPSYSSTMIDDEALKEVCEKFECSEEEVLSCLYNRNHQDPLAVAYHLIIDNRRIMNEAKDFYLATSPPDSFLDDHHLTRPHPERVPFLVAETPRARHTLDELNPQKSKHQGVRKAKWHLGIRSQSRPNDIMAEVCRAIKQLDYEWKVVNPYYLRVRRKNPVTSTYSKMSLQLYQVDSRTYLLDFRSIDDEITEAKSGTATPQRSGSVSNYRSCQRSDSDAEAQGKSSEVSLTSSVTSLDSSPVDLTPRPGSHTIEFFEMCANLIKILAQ
# AMP-activated protein kinase (AMPK) alpha-1/beta-1/gamma-1 (Homo sapiens), sequence (Q9Y478 2-270 partner limits assumed): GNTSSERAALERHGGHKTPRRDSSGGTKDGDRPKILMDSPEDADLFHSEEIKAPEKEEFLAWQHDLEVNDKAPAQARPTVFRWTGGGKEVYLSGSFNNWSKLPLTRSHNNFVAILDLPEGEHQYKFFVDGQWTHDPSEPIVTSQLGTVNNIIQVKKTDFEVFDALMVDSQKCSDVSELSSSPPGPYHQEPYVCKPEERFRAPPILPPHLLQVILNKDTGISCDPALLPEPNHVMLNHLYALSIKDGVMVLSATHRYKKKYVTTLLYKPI
# Dual specificity mitogen-activated protein kinase kinase 1 (Homo sapiens), sequence (Q02750 whole entry): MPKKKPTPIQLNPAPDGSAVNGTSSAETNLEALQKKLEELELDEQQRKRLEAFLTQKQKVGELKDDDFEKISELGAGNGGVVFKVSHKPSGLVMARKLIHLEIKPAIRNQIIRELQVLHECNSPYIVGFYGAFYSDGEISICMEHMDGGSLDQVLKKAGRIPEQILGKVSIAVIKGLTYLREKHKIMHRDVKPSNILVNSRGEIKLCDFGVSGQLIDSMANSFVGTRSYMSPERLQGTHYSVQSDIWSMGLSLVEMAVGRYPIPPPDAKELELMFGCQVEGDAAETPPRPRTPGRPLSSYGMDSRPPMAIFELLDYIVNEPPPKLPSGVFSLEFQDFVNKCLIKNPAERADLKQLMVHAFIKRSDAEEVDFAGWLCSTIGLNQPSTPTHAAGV
# Glycogen synthase kinase-3 beta (Homo sapiens), sequence (P49841 whole entry, looked up): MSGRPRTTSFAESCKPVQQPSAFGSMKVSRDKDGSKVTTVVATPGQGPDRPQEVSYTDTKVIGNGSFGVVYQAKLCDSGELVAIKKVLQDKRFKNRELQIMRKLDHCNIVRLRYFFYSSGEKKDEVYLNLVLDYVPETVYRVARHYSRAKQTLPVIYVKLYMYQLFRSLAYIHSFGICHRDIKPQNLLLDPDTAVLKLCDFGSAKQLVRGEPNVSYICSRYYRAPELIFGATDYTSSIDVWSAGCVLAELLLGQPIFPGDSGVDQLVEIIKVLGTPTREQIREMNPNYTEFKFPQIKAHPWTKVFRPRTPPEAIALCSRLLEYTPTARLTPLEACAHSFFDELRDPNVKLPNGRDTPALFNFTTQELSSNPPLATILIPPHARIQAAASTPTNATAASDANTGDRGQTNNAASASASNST
# Ribosomal protein S6 kinase beta-1 (Homo sapiens), sequence (P23443 whole entry, looked up): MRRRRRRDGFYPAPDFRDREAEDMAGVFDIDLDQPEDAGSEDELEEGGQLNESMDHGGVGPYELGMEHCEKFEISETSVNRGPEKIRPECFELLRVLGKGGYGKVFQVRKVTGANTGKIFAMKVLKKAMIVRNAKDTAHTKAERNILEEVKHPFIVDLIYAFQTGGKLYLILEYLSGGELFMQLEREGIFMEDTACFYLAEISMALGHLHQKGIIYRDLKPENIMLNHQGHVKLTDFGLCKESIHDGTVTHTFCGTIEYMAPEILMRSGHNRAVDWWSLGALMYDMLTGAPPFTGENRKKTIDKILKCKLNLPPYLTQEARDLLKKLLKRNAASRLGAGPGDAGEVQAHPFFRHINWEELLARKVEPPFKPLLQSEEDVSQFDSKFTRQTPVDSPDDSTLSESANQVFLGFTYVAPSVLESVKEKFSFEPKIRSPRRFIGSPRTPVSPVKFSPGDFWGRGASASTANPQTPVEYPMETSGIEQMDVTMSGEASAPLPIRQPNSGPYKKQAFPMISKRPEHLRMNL
compound,measurement,setting,value
CC(C)(C)c1cc(NC(=O)NCc2ccc(-c3cc(NC(=O)c4ccc(OCCN5CCOCC5)cc4)[nH]n3)cc2)no1,inhibition,[1],5%
same,inhibition,[2],2%
same,IC50,[3],1 nM
same,inhibition,[4],100%
same,GI50,[5],3 nM
same,inhibition,[6],97%
same,inhibition,[7],83%
same,IC50,[8],18 nM
same,inhibition,[9],-2%
same,inhibition,[10],6%
same,inhibition,[11],13%
same,inhibition in vivo at 10 mg/kg,[12],70%
same,inhibition,[13],2%
same,inhibition,[14],99%
same,inhibition,[15],41%
same,inhibition,[16],-2%
same,inhibition,[17],Active
same,Vd,[18],3.6 L/kg
same,inhibition,[19],40%
same,clearance,[20],10.7 mL/min/kg
same,inhibition,[21],97%
same,inhibition,[22],48%
same,inhibition,[23],Active
same,inhibition,[24],21%
same,inhibition,[25],13%
same,IC50,[26],28 nM
same,IC50,[27],1 nM
same,inhibition,[28],86%
same,inhibition in vivo at 10 mg/kg,[29],84%

# Reference: ChEMBL document CHEMBL2384934, “Discovery of 3-phenyl-1H-5-pyrazolylamine derivatives containing a urea pharmacophore as potent and efficacious inhibitors of FMS-like tyrosine kinase-3 (FLT3)” (Bioorg Med Chem, 2013)
